The source of these data is patent US7723347B2, “Substituted phenylamino-pyrimidines” (Bayer Schering Pharma Aktiengesellschaft, priority 2004, dated 2010).

Broadly, the IC50 is the concentration at which inhibition is half-maximal.

Assay [1] deals with isolated rings of the saphenous artery of rabbits. As to the kind of experiment: Vessel-relaxing action in vitro, phenylephrine-induced contractions of isolated saphenous artery rings. The settings on record: Oryctolagus cuniculus; concentration reducing phenylephrine-induced contraction (3×10^−8 g/ml) of rabbit saphenous artery rings by 50%. As to the method:
(§1) The inhibition of the enzyme is investigated in an in vitro assay with recombinant Rho kinase II. The vessel-relaxing action is determined using phenylephrine-induced contractions of isolated rings of the saphenous artery of rabbits.
Vessel-Relaxing Action In Vitro
Individual 3-mm-wide rings of the isolated saphenous artery of rabbits are introduced into 5 ml organ baths with Krebs-Henseleit solution (37° C., gassed with carbogen). The vessel tone is monitored isometrically and registered. Contractions are induced by addition of 3×10^−8 g of phenylephrine/ml, which is washed out again after 4 min. After a number of control cycles, the rings are pre-incubated with the substance to be examined, with the dosage being increased for each further cycle, and the subsequent contraction is compared to the intensity of the last control contraction. The concentration required to reduce the intensity of the control value by 50% (IC50) is calculated.

Assay [2] addresses recombinant Rho kinase II (ROKα) (UniProt Q62868). Kind of assay: Inhibition of recombinant Rho kinase II (ROKα), 33P uptake into S6 substrate peptide. The format is biochemical. Particulars: Rho-kinase-catalyzed uptake of 33P into S6 peptide, 37° C., vs solvent control. As to the method: as §1
Inhibition of Recombinant Rho Kinase II (ROKα)
The activity of Rho kinase is determined by the uptake of ^33P phosphate into a substrate peptide. To this end, commercially available Rho kinase II (Upstate Biotechnology) is pre-incubated at 37° C. in the presence of the S6 phosphate-acceptor peptide with the test substances or a solvent control for 10 min. The kinase reaction is then started by addition of ^33P-labeled ATP. After 20 min at 37° C., the reaction is stopped by addition of H3PO4. Aliquots are pipetted onto filters and the filters are washed and then covered with scintillator. The radioactivity of the ^33P-labeled peptides bound to the filter is measured in a Micro-Beta counter. The IC50 value corresponds to the concentration of a test substance at which the Rho-kinase-catalyzed uptake of ^33P into the peptide is inhibited by 50%, compared to a solvent control.

`Nc1nc(Nc2ccc(Cc3ccnc4[nH]ccc34)c(F)c2)cc(C(F)(F)F)n1` [Example 8, N^4-[3-Fluoro-4-(1H-pyrrolo[2,3-b]pyridin-4-ylmethyl)phenyl]-6-(trifluoromethyl)pyrimidine-2,4-diamine]: the IC50 was found to be 86 nM in assay [1] and 7 nM in assay [2].

For `Cc1c[nH]c2nccc(Nc3ccc(Nc4cc(Cl)nc(N)n4)cc3F)c12` [Example 10, 6-Chloro-N^4-{3-fluoro-4-[(3-methyl-1H-pyrrolo[2,3-b]pyridin-4-yl)amino]phenyl}pyrimidine-2,4-diamine], the IC50 was found to be 8 nM in assay [1] and 3 nM in assay [2].

Regarding `Cc1c[nH]c2nccc(Nc3ccc(Nc4cc(C(F)(F)F)nc(N)n4)cc3F)c12` [Example 11, N^4-{3-Fluoro-4-[(3-methyl-1H-pyrrolo[2,3-b]pyridin-4-yl)amino]phenyl}-6-(trifluoromethyl)pyrimidine-2,4-diamine], the IC50 in assay [1] was found to be 3 nM; in assay [2] it was 4 nM.
